Data taken from ChEMBL document CHEMBL3045727, “Synthesis of some new thiazolopyrane and thiazolopyranopyrimidine derivatives bearing a sulfonamide moiety for evaluation as anticancer and radiosensitizing agents” (Med Chem Res, 2012).

Experiments:
HepG2 [1] = experiment: Cytotoxicity against Homo sapiens (human) HepG2 cells assessed as cell surviving fraction at 50 uM after 48 hr by SRB assay; type: functional
HepG2 [2] = experiment: Cytotoxicity against Homo sapiens (human) HepG2 cells after 48 hr by SRB assay; type: functional, cell-based; settings: HepG2, 48 h
HepG2 [3] = experiment: Cytotoxicity against Homo sapiens (human) HepG2 cells assessed as cell surviving fraction at 10 uM after 48 hr by SRB assay; type: functional
HepG2 [4] = experiment: Cytotoxicity against Homo sapiens (human) HepG2 cells assessed as cell surviving fraction at 100 uM after 48 hr by SRB assay; type: functional
HepG2 [5] = experiment: Cytotoxicity against Homo sapiens (human) HepG2 cells assessed as cell surviving fraction at 100 uM after 48 hr followed by gamma-radiation at dose level of 8 Gy by SRB assay; type: functional
HepG2 [6] = experiment: Cytotoxicity against Homo sapiens (human) HepG2 cells assessed as cell surviving fraction at 25 uM after 48 hr followed by gamma-radiation at dose level of 8 Gy by SRB assay; type: functional
HepG2 [7] = experiment: Cytotoxicity against Homo sapiens (human) HepG2 cells after 48 hr followed by gamma-radiation at dose level of 8 Gy by SRB assay; type: functional, cell-based; settings: HepG2, 48 h
HepG2 [8] = experiment: Cytotoxicity against Homo sapiens (human) HepG2 cells assessed as cell surviving fraction at 10 uM after 48 hr followed by gamma-radiation at dose level of 8 Gy by SRB assay; type: functional
HepG2 [9] = experiment: Cytotoxicity against Homo sapiens (human) HepG2 cells assessed as cell surviving fraction at 50 uM after 48 hr followed by gamma-radiation at dose level of 8 Gy by SRB assay; type: functional
HepG2 [10] = experiment: Cytotoxicity against Homo sapiens (human) HepG2 cells assessed as cell surviving fraction at 25 uM after 48 hr by SRB assay; type: functional

Row | Structure (SMILES) | Ratio (HepG2 [1]) | IC50 (HepG2 [2]) | Ratio (HepG2 [3]) | Ratio (HepG2 [4]) | Ratio (HepG2 [5]) | Ratio (HepG2 [6]) | IC50 (HepG2 [7]) | Ratio (HepG2 [8]) | Ratio (HepG2 [9]) | Ratio (HepG2 [10])
1 | NS(=O)(=O)c1ccc(NC2=NC(=O)CS2)cc1 | 0.168 | 43 µM | 0.848 | 0.231 | 0.12 | 0.48 | 30 µM | 0.53 | 0.12 | 0.501
2 | N#CC1=C(N)Oc2nc(Nc3ccc(S(N)(=O)=O)cc3)sc2C1c1ccc([N+](=O)[O-])cc1 (stereo not drawn) | 0.376 | 60 µM | 0.846 | 0.312 |  |  |  |  |  | 0.767
3 | COc1ccc(C2C(C#N)=C(N)Oc3nc(Nc4ccc(S(N)(=O)=O)cc4)sc32)cc1OC (stereo not drawn) | 0.64 |  | 0.628 | 0.672 |  |  |  |  |  | 0.564
4 | N#CC1=C(N)Oc2nc(Nc3ccc(S(N)(=O)=O)cc3)sc2C1c1ccccc1Cl (stereo not drawn) | 0.582 |  | 0.909 | 0.655 |  |  |  |  |  | 0.861
5 | N#CC1=C(N)Oc2nc(Nc3ccc(S(N)(=O)=O)cc3)sc2C1c1cccc(Br)c1 (stereo not drawn) | 0.388 | 72 µM | 0.846 | 0.509 |  |  |  |  |  | 0.564
6 | Nc1ncnc2c1C(c1ccc([N+](=O)[O-])cc1)c1sc(Nc3ccc(S(N)(=O)=O)cc3)nc1O2 (stereo not drawn) | 0.287 | 65 µM | 0.814 | 0.489 |  |  |  |  |  | 0.605
7 | NS(=O)(=O)c1ccc(Nc2nc3c(s2)C(c2ccc([N+](=O)[O-])cc2)c2c(nc[nH]c2=O)O3)cc1 (stereo not drawn) | 0.168 | 36 µM | 0.625 | 0.015 | 0.14 | 0.22 | 18 µM | 0.41 | 0.12 | 0.498
8 | COc1ccc(C2c3sc(Nc4ccc(S(N)(=O)=O)cc4)nc3Oc3nc[nH]c(=O)c32)cc1OC (stereo not drawn) | 0.164 | 32 µM | 0.561 | 0.127 |  |  |  |  |  | 0.446
9 | Cc1nc2c(c(=O)[nH]1)C(c1ccc([N+](=O)[O-])cc1)c1sc(Nc3ccc(S(N)(=O)=O)cc3)nc1O2 (stereo not drawn) | 0.301 | 45 µM | 0.764 | 0.213 |  |  |  |  |  | 0.498
10 | COc1ccc(C2c3sc(Nc4ccc(S(N)(=O)=O)cc4)nc3Oc3nc(C)[nH]c(=O)c32)cc1OC (stereo not drawn) | 0.118 | 30 µM | 0.529 | 0.115 | 0.11 | 0.12 | 8 µM | 0.31 | 0.1 | 0.477
11 | Nc1nc(=O)[nH]c2c1C(c1ccc([N+](=O)[O-])cc1)c1sc(Nc3ccc(S(N)(=O)=O)cc3)nc1O2 (stereo not drawn) | 0.244 | 45 µM | 0.779 | 0.262 |  |  |  |  |  | 0.487
12 | Nc1nc(=S)[nH]c2c1C(c1ccc([N+](=O)[O-])cc1)c1sc(Nc3ccc(S(N)(=O)=O)cc3)nc1O2 (stereo not drawn) | 0.284 | 39 µM | 0.615 | 0.246 |  |  |  |  |  | 0.432
13 | N#CC1=C(N2C(=O)CCC2=O)Oc2nc(Nc3ccc(S(N)(=O)=O)cc3)sc2C1c1ccc([N+](=O)[O-])cc1 (stereo not drawn) | 0.342 | 45 µM | 0.71 | 0.231 |  |  |  |  |  | 0.474
14 | N#CC1=C(NC(=O)CCC(=O)O)Oc2nc(Nc3ccc(S(N)(=O)=O)cc3)sc2C1c1ccc([N+](=O)[O-])cc1 (stereo not drawn) | 0.127 | 32 µM | 0.626 | 0.166 | 0.13 | 0.23 | 15 µM | 0.36 | 0.11 | 0.382
15 | CC(=O)CC(=O)NC1=C(C#N)C(c2ccc([N+](=O)[O-])cc2)c2sc(Nc3ccc(S(N)(=O)=O)cc3)nc2O1 (stereo not drawn) | 0.206 | 37 µM | 0.546 | 0.299 |  |  |  |  |  | 0.456
16 | COc1ccc(C2c3sc(Nc4ccc(S(N)(=O)=O)cc4)nc3Oc3[nH]c(=S)n(-c4ccccc4)c(=N)c32)cc1OC (stereo not drawn) | 0.128 | 31 µM | 0.593 | 0.137 | 0.13 | 0.21 | 17 µM | 0.4 | 0.12 | 0.434
17 | COc1cccc2c1C(=O)c1c(O)c3c(c(O)c1C2=O)C[C@@](O)(C(=O)CO)C[C@@H]3O[C@H]1C[C@H](N)[C@H](O)[C@H](C)O1 [DOXORUBICIN] | 0.122 | 32 µM | 0.537 | 0.125 |  |  |  |  |  | 0.479
